Laboratory results from patent US5872281A, “Amino acid derivative having N,N-dialkylaminophenyl group” (Santen Pharmaceutical Co., Ltd., priority 1995, dated 1999).

Tested on: LTA4 hydrolase
Experiment: not given
Conditions: JP-A 2-134375; J. Med. Chem., 37, 3197-3199 (1994); cited from earlier work

For O=C(O)c1cccc(C2CO2)c1 (stereo not shown) [3-Oxiranyl benzoic acid], the “LTA4 hydrolase inhibitory activity (reported, in words)” value is given as “LTA4 hydrolase inhibitory activity”.
In the case of O=C(O)C1(c2ccc3c(c2)OC[C@H](Cc2ccc(-c4ccccc4)cc2)[C@H]3O)CCCC1 [(+)-1-(3S, 4R)-[3-(4-phenylbenzyl)-4-hydroxychroman-7-yl]cyclopentanecarboxylic acid], the “LTA4 hydrolase inhibitory activity (reported, in words)” value is listed as “LTA4 hydrolase inhibitory activity”.

Molecular target: T1, LTA4 hydrolase (Cavia porcellus, UniProt P19602)
T1 construct: prepared by extracting roughly from guinea pig lung; from tissue; host or cells: guinea pig (Hartley) lung, 100,000×g supernatant, 40-70% ammonium sulfate fraction, dialyzed
T1 sequence (P19602 1-611): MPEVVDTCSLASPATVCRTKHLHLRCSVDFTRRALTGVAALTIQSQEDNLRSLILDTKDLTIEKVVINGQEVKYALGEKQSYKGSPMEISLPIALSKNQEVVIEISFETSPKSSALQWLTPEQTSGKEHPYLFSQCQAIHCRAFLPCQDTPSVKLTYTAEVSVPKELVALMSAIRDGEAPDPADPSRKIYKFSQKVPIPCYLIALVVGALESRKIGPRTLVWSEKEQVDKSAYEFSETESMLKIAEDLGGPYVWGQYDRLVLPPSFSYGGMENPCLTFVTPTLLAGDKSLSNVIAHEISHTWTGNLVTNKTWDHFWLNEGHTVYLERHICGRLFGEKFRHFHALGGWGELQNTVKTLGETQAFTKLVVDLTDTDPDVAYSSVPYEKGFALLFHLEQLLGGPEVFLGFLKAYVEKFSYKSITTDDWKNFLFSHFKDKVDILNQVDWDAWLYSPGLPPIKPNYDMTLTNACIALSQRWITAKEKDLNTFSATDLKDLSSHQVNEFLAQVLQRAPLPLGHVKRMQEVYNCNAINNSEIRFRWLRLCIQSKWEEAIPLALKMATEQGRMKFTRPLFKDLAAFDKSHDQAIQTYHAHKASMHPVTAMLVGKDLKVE
Experiment: LTA4 hydrolase inhibition, LTB4 produced from LTA4 (guinea pig lung enzyme preparation), measured by HPLC
Assay type: biochemical
Conditions: LTA4 63 μM; HEPES 50 mM, pH 7.8; enzyme preparation 0.4-0.6 mg protein; DTT 3 mM; 37° C., one minute; read-out: IC50 (concentration required to inhibit LTA4 hydrolase by 50%)
Description: Izumi et al. had reported a method of measuring LTA4 hydrolase activity by measuring an amount of LTB4 produced by an enzymatic reaction using LTA4 as a substrate (Biochem. Biophys. Res. Commun., 135, 139-145 (1986)). Effects of the present compounds on LTA4 hydrolase were examined according to the method described in the literature.
An enzyme preparation used in this pharmacological test was prepared by extracting roughly from guinea pig lung by the following method, according to the method of Izumi et al. (Biochem. Biophys. Res. Commun., 135, 139-145 (1986)) and the method of Evans et al. (Biochem. Biophys. Acta, 840, 43-50 (1985)).
Lungs were excised from Hartley guinea pigs (body weight: 330 g). The lungs were homogenized in phosphoric acid buffer (50 mM, pH 7.4, containing 1 mM ethylenediaminetetraacetic acid (EDTA) and 1 mM dithiothreitol (DTT)) having weight three times that of the lungs under ice-cooling. The homogenate was centrifuged at low speed (800×g) for 20 minutes, centrifuged at high speed (10,000×g) for 20 minutes and ultraccntrifugcd (100,000×g) for 60 minutes to give a supernatant. The supernatant was brought to 40% saturation by adding a saturated aqueous ammonium sulfate solution (pH 7.0-7.2, containing 1 mM DTT) dropwise under ice-cooling and centrifuged at high speed (10,000×g) for 20 minutes. The resulting supernatant was brought to 70% saturation by adding a saturated aqueous ammonium sulfate solution (pH 7.0-7.2, containing 1 mM DTT) dropwise and centrifuged at high speed (10,000×g) for 20 minutes. The obtained pellet was dissolved in 2 ml of Tris-acetic acid buffer (20 mM, pH 7.8, containing 1 mM DTT) and dialyzed in 2 liters of the solution to give the enzyme preparation.
LTA4 used, which is the substrate, was prepared by hydrolyzing LTA4 methyl ester and dissolved in ethanol.
In order to examine effects of the present compounds on the enzyme preparation, reactions were performed under the following condition using mixed solutions consisting of the composition shown in Table 1. […]
HEPES buffer 50 mM, pH 7.8
Enzyme preparation 0.4-0.6 mg protein
The above-mentioned solution (50 μl) was incubated at 37° C. for one minute. To the reaction mixture was added 100 μl of a mixed liquid of acetonitrile-ethanol-acetic acid (150:50:3, volume ratio) under ice-cooling. The mixture was allowed to stand at -20° C. for 30 minutes and centrifuged at high speed (10,000×g) for five minutes to give a supernatant. An amount of LTB4 produced in the supernatant was measured by high-speed liquid chromatography.
The degree of the inhibitory effect of each test compound on LTA4 hydrolase is expressed by the inhibition rate calculated by the following equation. [formula] Results

In order of rising IC50:
1. C[C@H](CS)C(=O)N[C@@H](CSCc1ccc(N(C)C)cc1)C(=O)O [Compound No. 3-1, (2R)-3-[4-(N,N-Dimethylamino)benzylthio]-2-[(2S)-3-mercapto-2-methylpropionylamino]propionic acid]  240 nM
2. CCCC(CS)C(=O)N[C@@H](CSCc1ccc(N(C)C)cc1)C(=O)O (mixture of isomers) [Compound No. 3-23, (2R)-3-[4-(N,N-Dimethylamino)benzylthio]-2-[(2RS)-3-mercapto-2-propylpropionylamino]propionic acid]  290 nM
3. CCC(CS)C(=O)N[C@@H](CSCc1ccc(N(C)C)cc1)C(=O)O (mixture of isomers) [Compound No. 3-22, (2R)-3-[4-(N,N-Dimethylamino)benzylthio]-2-[(2RS)-2-ethyl-3-mercaptopropionylamino]propionic acid]  400 nM
4. CN(C)c1ccc(CSC[C@H](NC(=O)C(CS)CCc2ccccc2)C(=O)O)cc1 (single isomer, unassigned) [Compound No. 3-26, (2R)-3-[4-(N,N-Dimethylamino)benzylthio]-2-[(2S or 2R)-2-phenetyl-3-mercaptopropionylamino]propionic acid]  500 nM
5. CCOC(=O)[C@H](CSCc1ccc(N(C)C)cc1)NC(=O)[C@H](C)CS [Compound No. 8-1, Ethyl (2R)-3-[4-(N,N-dimethylamino)benzylthio]-2-[(2S)-3-mercapto-2-methylpropionylamino]propionate]  590 nM
6. CCN(CC)c1ccc(CSC[C@H](NC(=O)[C@H](C)CS)C(=O)O)cc1 [Compound No. 3-9, (2R)-3-[4-(N,N-Diethylamino)benzylthio]-2-[(2S)-3-mercapto-2-methylpropionyl]aminopropionic acid]  900 nM
7. CC(C)C(CS)C(=O)N[C@@H](CSCc1ccc(N(C)C)cc1)C(=O)O (mixture of isomers) [Compound No. 3-24, (2R)-3-[4-(N,N-Dimethylamino)benzylthio]-2-[(2RS)-2-isopropyl-3-mercaptopropionylamino]propionic acid]  1100 nM
8. C[C@@H](CS)C(=O)N[C@@H](CSCc1ccc(N(C)C)cc1)C(=O)O [Compound No. 3-21, (2R)-3-[4-(N,N-Dimethylamino)benzylthio]-2-[(2R)-3-mercapto-2-methylpropionylamino]propionic acid]  1500 nM
9. CN(C)c1ccc(CSC[C@H](NC(=O)C(CS)CCc2ccccc2)C(=O)O)cc1 (single isomer, unassigned) [Compound No. 3-27, (2R)-3-[4-(N,N-Dimethylamino)benzylthio]-2-[(2R or 2S)-2-phenetyl-3-mercaptopropionylamino]propionic acid]  3800 nM
10. C[C@H](S)C(=O)N[C@@H](CSCc1ccc(N(C)C)cc1)C(=O)O [Compound No. 3-19, (2R)-3-[4-(N,N-Dimethylamino)benzylthio]-2-[(2S)-2-mercaptopropionylamino]propionic acid]  5600 nM

Tested on: arthritis in a collagen-induced arthritis model
Experiment: not given
Conditions: J. Med. Chem., 37, 3197-3199 (1994); cited from earlier work

For O=C(O)C1(c2ccc3c(c2)OC[C@H](Cc2ccc(-c4ccccc4)cc2)[C@H]3O)CCCC1 [(+)-1-(3S, 4R)-[3-(4-phenylbenzyl)-4-hydroxychroman-7-yl]cyclopentanecarboxylic acid], the “inhibition of sideration of arthritis (in words)” value is given as “inhibit sideration of arthritis”.
